Measured values from patent US20220387604A1, “SELECTIVE DUAL HISTONE DEACETYLASE 6/8 (HDAC6/8) DEGRADERS AND METHODS OF USE THEREOF” (DANA-FARBER CANCER INSTITUTE, INC., priority 2019, published 2022).
Entries after “also recorded” stand apart in the source; their conditions may differ.

How the values were obtained:
Type in all cases: biochemical
[1] = biological target: T1, HDAC7 (Homo sapiens, UniProt Q8WUI4); assay: HDAC enzymatic assay (Reaction Biology), HDAC7; conditions: summary of Table 1
T1 construct: purchased Reaction Biology
T1 sequence (Q8WUI4 1-952): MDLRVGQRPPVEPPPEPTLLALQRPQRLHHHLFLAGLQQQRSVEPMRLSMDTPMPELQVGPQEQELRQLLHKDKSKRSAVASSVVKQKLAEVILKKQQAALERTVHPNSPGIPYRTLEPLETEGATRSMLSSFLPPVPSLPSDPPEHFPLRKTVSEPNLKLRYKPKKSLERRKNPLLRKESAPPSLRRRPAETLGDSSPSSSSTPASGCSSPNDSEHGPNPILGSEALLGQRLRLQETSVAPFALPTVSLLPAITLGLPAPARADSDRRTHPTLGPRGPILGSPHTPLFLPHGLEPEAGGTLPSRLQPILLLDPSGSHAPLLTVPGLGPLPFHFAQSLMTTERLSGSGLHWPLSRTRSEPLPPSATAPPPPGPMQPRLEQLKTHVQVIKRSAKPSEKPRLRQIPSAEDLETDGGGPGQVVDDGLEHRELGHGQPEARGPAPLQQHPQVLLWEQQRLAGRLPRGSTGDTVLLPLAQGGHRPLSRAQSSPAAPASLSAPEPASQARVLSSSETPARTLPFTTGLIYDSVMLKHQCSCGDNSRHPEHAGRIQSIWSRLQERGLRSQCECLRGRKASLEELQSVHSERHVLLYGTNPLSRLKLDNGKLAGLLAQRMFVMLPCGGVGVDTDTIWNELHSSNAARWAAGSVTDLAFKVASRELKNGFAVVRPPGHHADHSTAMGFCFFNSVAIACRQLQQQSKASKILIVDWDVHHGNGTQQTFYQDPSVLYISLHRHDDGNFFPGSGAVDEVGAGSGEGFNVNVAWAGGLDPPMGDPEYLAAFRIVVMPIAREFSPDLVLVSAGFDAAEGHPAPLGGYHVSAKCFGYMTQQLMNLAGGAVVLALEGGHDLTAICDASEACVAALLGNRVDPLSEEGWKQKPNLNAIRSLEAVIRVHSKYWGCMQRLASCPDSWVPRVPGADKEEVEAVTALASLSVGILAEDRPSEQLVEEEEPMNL
Procedure: (§1) Compound 1 was tested in an enzymatic assay from Reaction Biology® against 10 HDAC isoforms. The IC50 values were derived from a 10-dose response curve.
(§2) Base Reaction buffer: 50 mM Tris-HCl, pH8.0, 137 mM NaCl, 2.7 mM KCl, and 1 mM MgCl2, Add fresh: 1 mg/ml BSA, 1% DMSO
(§3) Class2A Substrate (HDAC4, HDAC5, HDAC7, and HDAC9): Boc-Lys(trifluoroacetyl)-AMC
(§4) 1. Delivered 2× enzyme in wells of reaction plate except in the control wells and added buffer to control wells. 2. Delivered compounds in 100% DMSO into the enzyme mixture by Acoustic technology (Echo550; nanoliter range). Spin down and pre-incubation. 3. Delivered 2× Substrate Mixture (Fluorogenic HDAC Substrate and co-factor if applicable) in all reaction wells to initiate the reaction. Spin and shake. 4. Incubated for 30 min for Class 2A, 1 h for HDAC1, 2, 3, and 6, and 2 h for the rest of HDAC isoforms and SIRTs at 30° C. with seal.
(§5) 5. Added Developer with Trichostatin A (or Nicotinamide for SIRTs) to stop the reaction and to generate fluorescent color. 6. The fluorescence that was generated was detected with excitation (Ex) at […] and emission (Em) at 460 nM by the EnVision Multilabel Plate Reader (PerkinElmer®, Santa Clara, Calif., USA).
(§6) IC50 values were derived from a 10-dose response curve.

[2] = biological target: T2, HDAC9 (Homo sapiens, UniProt Q9UKV0); assay: HDAC enzymatic assay (Reaction Biology), HDAC9; conditions: summary of Table 1
T2 construct: purchased Reaction Biology
T2 sequence (Q9UKV0 whole entry): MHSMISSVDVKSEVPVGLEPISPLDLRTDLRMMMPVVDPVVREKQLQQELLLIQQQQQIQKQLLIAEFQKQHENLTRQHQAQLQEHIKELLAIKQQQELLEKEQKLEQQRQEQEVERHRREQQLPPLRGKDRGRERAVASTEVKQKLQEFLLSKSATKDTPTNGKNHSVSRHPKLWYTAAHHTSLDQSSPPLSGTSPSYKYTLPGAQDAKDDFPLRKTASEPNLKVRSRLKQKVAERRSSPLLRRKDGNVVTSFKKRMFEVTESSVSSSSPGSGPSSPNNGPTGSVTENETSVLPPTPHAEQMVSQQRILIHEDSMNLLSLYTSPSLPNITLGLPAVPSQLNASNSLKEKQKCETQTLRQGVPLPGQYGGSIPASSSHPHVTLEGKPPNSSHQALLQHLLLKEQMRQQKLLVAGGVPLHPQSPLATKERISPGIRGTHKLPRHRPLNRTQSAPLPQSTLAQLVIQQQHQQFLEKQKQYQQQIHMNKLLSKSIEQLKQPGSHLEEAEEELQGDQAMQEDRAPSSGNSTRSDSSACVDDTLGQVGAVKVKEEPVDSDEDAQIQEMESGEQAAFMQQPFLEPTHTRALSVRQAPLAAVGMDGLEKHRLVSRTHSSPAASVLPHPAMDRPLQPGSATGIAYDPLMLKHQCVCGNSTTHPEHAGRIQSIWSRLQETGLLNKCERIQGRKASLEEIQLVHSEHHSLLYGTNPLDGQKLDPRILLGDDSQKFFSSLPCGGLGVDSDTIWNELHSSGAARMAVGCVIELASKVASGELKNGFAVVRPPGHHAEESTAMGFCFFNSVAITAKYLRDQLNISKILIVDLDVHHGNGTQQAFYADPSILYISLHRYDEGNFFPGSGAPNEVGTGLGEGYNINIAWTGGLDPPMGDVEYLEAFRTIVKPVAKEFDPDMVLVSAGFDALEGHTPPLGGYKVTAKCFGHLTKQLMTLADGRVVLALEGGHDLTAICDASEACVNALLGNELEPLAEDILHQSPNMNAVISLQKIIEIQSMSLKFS
Procedure: as §1, §2, §3, §4, §5, §6

[3] = biological target: T3, HDAC2 (Homo sapiens, UniProt Q92769); assay: HDAC enzymatic assay (Reaction Biology), HDAC2
T3 construct: purchased Reaction Biology
T3 sequence (Q92769 whole entry): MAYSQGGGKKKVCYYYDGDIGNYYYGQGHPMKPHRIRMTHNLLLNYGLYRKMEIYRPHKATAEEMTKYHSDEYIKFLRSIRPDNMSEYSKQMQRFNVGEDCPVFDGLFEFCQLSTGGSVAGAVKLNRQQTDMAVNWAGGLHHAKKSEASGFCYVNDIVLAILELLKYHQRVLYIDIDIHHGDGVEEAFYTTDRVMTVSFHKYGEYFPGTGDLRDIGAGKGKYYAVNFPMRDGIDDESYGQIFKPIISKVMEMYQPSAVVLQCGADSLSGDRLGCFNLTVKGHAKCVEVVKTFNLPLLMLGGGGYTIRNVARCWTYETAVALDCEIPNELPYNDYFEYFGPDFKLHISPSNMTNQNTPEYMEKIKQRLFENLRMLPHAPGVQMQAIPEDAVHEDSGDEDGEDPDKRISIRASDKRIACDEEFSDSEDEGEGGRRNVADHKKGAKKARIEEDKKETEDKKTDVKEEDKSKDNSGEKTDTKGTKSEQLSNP
Procedure: as §1, §2
Fluorogenic HDAC General Substrate (HDAC1, HDAC2, HDAC3, HDAC6, HDAC10, and HDAC11): 50 μM, Arg-His-Lys-Lys(Ac)-AMC
as §4, §5, §6

[4] = biological target: T4, HDAC8 (Homo sapiens, UniProt Q9BY41); assay: HDAC enzymatic assay (Reaction Biology), HDAC8
T4 construct: purchased Reaction Biology
T4 sequence (Q9BY41 1-377): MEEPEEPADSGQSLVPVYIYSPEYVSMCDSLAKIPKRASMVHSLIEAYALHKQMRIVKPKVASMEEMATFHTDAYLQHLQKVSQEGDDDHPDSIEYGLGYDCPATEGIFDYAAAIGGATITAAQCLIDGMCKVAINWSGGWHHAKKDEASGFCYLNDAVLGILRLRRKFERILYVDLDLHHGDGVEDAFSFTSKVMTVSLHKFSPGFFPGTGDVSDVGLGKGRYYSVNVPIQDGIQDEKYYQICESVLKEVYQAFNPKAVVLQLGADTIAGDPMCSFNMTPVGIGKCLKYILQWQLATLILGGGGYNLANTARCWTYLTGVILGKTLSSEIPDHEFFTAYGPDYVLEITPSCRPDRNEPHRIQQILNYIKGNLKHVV
Procedure: as §1, §2
(HDAC8 only substrate: 50 μM, Arg-His-Lys(Ac)-Lys(Ac))-AMC
as §4, §5, §6

[5] = biological target: T5, HDAC5 (Homo sapiens, UniProt Q9UQL6); assay: HDAC enzymatic assay (Reaction Biology), HDAC5
T5 construct: purchased Reaction Biology
T5 sequence (Q9UQL6 whole entry): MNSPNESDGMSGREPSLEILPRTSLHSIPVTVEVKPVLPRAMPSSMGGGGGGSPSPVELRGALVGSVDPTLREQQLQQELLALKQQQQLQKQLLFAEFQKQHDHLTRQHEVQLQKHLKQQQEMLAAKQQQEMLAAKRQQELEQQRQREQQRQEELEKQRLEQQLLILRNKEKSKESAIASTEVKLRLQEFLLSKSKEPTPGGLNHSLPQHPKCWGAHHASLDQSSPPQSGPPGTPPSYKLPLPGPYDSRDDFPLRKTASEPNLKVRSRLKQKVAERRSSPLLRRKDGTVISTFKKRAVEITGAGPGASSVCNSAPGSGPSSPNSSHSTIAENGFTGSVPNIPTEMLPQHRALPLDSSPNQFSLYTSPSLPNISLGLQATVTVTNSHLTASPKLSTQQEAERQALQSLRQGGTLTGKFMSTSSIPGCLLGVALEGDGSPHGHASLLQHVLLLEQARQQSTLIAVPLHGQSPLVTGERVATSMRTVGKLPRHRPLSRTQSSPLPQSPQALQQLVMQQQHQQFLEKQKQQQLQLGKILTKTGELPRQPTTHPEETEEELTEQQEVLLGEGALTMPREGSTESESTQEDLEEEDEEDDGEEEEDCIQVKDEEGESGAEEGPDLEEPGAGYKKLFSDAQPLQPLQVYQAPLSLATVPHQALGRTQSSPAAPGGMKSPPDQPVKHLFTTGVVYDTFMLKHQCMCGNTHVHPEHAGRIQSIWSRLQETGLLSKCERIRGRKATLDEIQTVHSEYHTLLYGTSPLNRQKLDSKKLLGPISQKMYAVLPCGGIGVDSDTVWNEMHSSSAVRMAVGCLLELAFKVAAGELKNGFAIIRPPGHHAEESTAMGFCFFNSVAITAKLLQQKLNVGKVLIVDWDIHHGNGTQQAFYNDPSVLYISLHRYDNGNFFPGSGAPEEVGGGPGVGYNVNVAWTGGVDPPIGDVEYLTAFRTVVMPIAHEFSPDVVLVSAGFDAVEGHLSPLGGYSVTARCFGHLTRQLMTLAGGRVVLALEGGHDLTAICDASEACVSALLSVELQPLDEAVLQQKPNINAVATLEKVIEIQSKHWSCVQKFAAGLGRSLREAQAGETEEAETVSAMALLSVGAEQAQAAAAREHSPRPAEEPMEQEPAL
Procedure: as §1, §2, §3, §4, §5, §6

[6] = biological target: T6, HDAC4 (Homo sapiens, UniProt P56524); assay: HDAC enzymatic assay (Reaction Biology), HDAC4; conditions: summary of Table 1
T6 construct: purchased Reaction Biology
T6 sequence (P56524 whole entry): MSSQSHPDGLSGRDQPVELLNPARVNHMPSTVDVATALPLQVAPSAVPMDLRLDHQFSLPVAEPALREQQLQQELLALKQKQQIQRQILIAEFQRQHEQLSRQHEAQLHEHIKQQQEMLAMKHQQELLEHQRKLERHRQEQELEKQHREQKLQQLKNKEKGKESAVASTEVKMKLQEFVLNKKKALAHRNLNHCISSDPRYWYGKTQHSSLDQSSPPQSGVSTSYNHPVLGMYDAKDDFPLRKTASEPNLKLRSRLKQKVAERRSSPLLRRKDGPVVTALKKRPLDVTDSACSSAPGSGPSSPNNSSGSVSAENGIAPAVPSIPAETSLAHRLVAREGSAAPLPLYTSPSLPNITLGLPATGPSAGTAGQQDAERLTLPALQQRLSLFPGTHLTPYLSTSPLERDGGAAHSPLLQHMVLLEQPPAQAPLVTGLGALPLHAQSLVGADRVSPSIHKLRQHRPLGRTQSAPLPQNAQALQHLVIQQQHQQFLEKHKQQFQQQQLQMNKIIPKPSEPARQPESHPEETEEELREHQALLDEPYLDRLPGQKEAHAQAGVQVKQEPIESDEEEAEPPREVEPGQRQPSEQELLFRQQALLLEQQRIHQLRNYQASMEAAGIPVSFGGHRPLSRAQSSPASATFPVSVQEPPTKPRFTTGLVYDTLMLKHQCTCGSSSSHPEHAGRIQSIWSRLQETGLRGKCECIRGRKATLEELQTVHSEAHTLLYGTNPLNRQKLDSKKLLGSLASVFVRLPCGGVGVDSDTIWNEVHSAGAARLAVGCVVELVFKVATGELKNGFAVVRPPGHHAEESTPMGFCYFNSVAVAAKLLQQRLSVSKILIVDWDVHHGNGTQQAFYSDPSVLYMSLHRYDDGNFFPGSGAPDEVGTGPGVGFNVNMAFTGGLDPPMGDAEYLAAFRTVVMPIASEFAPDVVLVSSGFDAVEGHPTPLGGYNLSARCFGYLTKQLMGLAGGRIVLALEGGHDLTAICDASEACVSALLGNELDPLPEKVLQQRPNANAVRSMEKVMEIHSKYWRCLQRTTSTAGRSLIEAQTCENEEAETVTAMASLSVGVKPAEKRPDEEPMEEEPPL
Procedure: as §1, §2, §3, §4, §5, §6

SMILES: O=C(/C=C/c1ccc(CN(CCOCCOCCNc2cccc3c2C(=O)N(C2CCC(=O)NC2=O)C3=O)CCc2c[nH]c3ccccc23)cc1)NO (stereo not drawn) [Compound 1, (E)-3-(4-(((2-(1H-indol-3-yl)ethyl)(2-(2-(2-((2-(2,6-dioxopiperidin-3-yl)-1,3-dioxoisoindolin-4-yl)amino)ethoxy)ethoxy)ethyl)amino)methyl)phenyl)-N-hydroxyacrylamide]
- inhibition of enzymatic activity of HDAC7 (in words) [1]: did not inhibit
- inhibition of enzymatic activity of HDAC9 (in words) [2]: did not inhibit
- IC50 ([3]; 10-dose response curve, read-out: Compound IC50 (M), HDAC2): 3.48e-06 M
- inhibition of enzymatic activity of HDAC2 (in words) ([3]; summary of Table 1): Moderate inhibition
- IC50 ([4]; 10-dose response curve, read-out: Compound IC50 (M), HDAC8): 4.51e-06 M
- inhibition of enzymatic activity of HDAC8 (in words) ([4]; summary of Table 1): potently inhibited; also recorded: Moderate inhibition
- IC50 ([5]; 10-dose response curve, read-out: Compound IC50 (M), HDAC5): > 2e-05 M
- inhibition of enzymatic activity of HDAC5 (in words) ([5]; summary of Table 1): did not inhibit
- inhibition of enzymatic activity of HDAC4 (in words) [6]: did not inhibit
